Legend:
[1] = molecular target: HLA-DR6(13); assay: Peptide binding competition assay, HLA class II; parameters: species or system human; conditions: competition with standard peptide
Protocol: In addition to the above I-MUNE® assay, peptide binding assays were also performed. The peptide binding assay used during the development of the present invention is known in the art (Southwood et al., J. Immunol., 160:3363-3373 [1998]). Briefly, HLA-DR and -DQ molecules were purified from a panel of EBV transformed cell lines. A competition assay was performed with a characterized standard peptide, and the unknown peptide. The amount of unknown peptide required to compete 50% of the standard peptide binding was then determined (indicated as the IC50).
The IC50 for HLA class II protein binding was determined for peptide epitopes defined by the in two related industrial bacterial proteases (See, FIG. 17). The peptides were tested in a competition assay for binding to 18 different HLA-DR and -DQ proteins. […] This likely explains the association seen in the data for a response to this peptide with HLA-DR6(13) donors (p=0.00015; relative risk=7.22, n=113 donors tested). Those results with values less than 500 nM were considered to be good binders and are highlighted in bold in FIG. 17. Also, in this Figure, degeneracy indicates the number of HLA Class II proteins that bind with an IC50 of less than 500 nM out of the 18 total alleles tested.

[2] = tested on: CD4+ T-cells and dendritic cells; assay: I-MUNE assay: CD4+ T-cell proliferation to 15-mer peptide sets presented by dendritic cells; type: cell-based, human; parameters: Structure Value: scale not given here; quantitative response among responders: unit not given here; conditions: for Average percent response to epitope peptide: Table 6, repeat tests of the epitope peptide on discrete donor groups; for Response/Peptide: SI>2.95; for effect of substitution on percent of responders to the epitope: peptide #49 variants, 69 donors; for statistical significance of the peptide response: conservative and non-conservative Poisson methods; for response to the peptide: beta-lactamase peptide set, 3× above the background
Protocol: All peptides were obtained from a commercial source (Mimotopes, San Diego, C-A). For the I-MUNE® assay system described herein, 15-mer peptides offset by 3 amino acids that described the entire sequence of the proteins of interest were synthesized in a multipin format (See, Maeji et al., J. Immunol. Meth., 134:23-33 [1990]). Peptides were resuspended in DMSO at approximately 1 to 2 mg/ml, and stored at −70° C. prior to use. Each peptide was tested at least in duplicate, although for small peptide sets (e.g., Ber e 1), the peptides were routinely tested in triplicate.
Volunteer donor human blood buffy coat samples were obtained from two commercial sources (Stanford Blood Center, Palo Alto, Calif., and the Sacramento Medical Foundation, Sacramento, Calif.). Buffy coat samples were further purified by density separation. Each sample was HLA typed for HLA-DR and HLA-DQ using a commercial PCR-based kit (Bio-Synthesis).
Monocytes were purified by adherence to plastic in AIM V medium (Gibco/Life Technologies). Adherent cells were cultured in AIM V media containing 500 units/ml of recombinant human IL-4 (Endogen) and 800 units/ml recombinant human GM-CSF (Endogen) for 5 days. On day 5, recombinant human IL-1α (Endogen) and recombinant human TNF-α (Endogen) were added to 50 units/ml and 0.2 units/ml, respectively. On day 7, the fully matured dendritic cells were treated with 50 μg/ml mitomycin C (Sigma) for 1 hour at 37° C. Treated dendritic cells were dislodged with 50 mM EDTA in PBS, washed in AIM V medium, counted, and resuspended in AIM V media at 2×10^5 cells/ml.
CD4^+ T-cells were purified by negative selection from frozen aliquots of human peripheral blood mononuclear cells (PBMC) using Cellect CD4 columns (Cedarlane). […] CD4^+ T-cells were resuspended in AIM V media at 2×10^6 cells per ml.
CD4^+ T-cells and dendritic cells were plated in round-bottomed 96 well format plates at 100 μl of each cell mix per well. Peptide was added to a final concentration of approximately 5 ug/ml in 0.25-0.5% DMSO. Control wells contained 0.5% DMSO without added peptide. Each peptide was tested in duplicate. Cultures were incubated at 37° C., in 5% CO2 for 5 days. On day 5, 0.5 uCi of tritiated thymidine (NEN DuPont) was added to each well. On day 6, the cultures were harvested onto glass fiber mats using a TomTec manual harvester (TomTec), then processed for scintillation counting. Proliferation was assessed by determining the average counts per minute (CPM) value for each set of duplicate wells (TriLux Beta). This method is also described in U.S. Pat. No. 6,218,165 and Stickler et al., J. Immunother. 23: 654-660 (2000), both of which are herein incorporated by reference.
For each individual buffy coat sample, the average CPM values obtained in the I-MUNE® assay for all of the peptides were analyzed. The average CPM values for each peptide were divided by the average CPM value for the control (DMSO only) wells to determine the “stimulation index” (SI). Donors were tested with each peptide set until an average of at least two responses per peptide were compiled. The data for each protein was graphed showing the percent responders to each peptide within the set. A positive response was collated if the SI value was equal to or greater than 2.95. This value was chosen as it approximates a difference of three standard deviations in a normal population distribution. For each protein assessed, positive responses to individual peptides by individual donors were compiled. To determine the background response for a given protein, the percent responders for each peptide in the set were averaged and a standard deviation was calculated. SI values for each donor were compiled for each peptide set, and the percent of responders reported.

[3] = Table 3, Stanford and Sacramento donors

Substance: BPN′ Y217L #24: 15-mer epitope peptide number 24 of BPN′ Y217L, amino acids 70-84 (GTVAALNNSIGVLGV)
- IC50 [1]: 0.69 nM
- Average percent response to epitope peptide [2]: 11.69%

Substance: BPN′ Y217L#37: 15-mer epitope peptide number 37 of BPN′ Y217L, amino acids 109-123 (NGIEWAIANNMDVIN)
- Average percent response to epitope peptide [2]: 12.91%

Substance: Ecotin: serine protease inhibitor from E. coli K12; GenBank Accession No. NP—416713
- Background % ([2]; Table 3): 5.69%
- Response/Peptide ([2]; Table 3): 3.98
- Structure Value [2, 3]: 0.64

Substance: GTTRLYANASFGLFG (synthetic variant) [I155F]
- effect of substitution on percent of responders to the epitope [2]: had little effect

Substance: GTTRLYANASIGLFG (listed as Enterobacter cloacae) [Peptide #49]
- statistical significance of the peptide response [2]: reached statistical significance using less conservative analyses

Substance: GTTRLYANASLGLFG (synthetic variant) [I155L]
- effect of substitution on percent of responders to the epitope [2]: had little effect

Substance: GTTRLYANASVGLFG (synthetic variant) [I155V]
- effect of substitution on percent of responders to the epitope [2]: increased the percent of responders to the modified epitope sequence

Substance: GTTRSYANASIGLFG (synthetic variant) [L149S]
- effect of substitution on percent of responders to the epitope [2]: had an effect on the epitope response rate

Substance: ITPLMKAQSVPGMAV (listed as Enterobacter cloacae) [Peptide #6]
- statistical significance of the peptide response [2]: reached statistical significance using less conservative analyses

Substance: MLDLATYTAGGLPLQ (listed as Enterobacter cloacae) [Peptide #36]
- quantitative response among responders ([2]; DR1+ responders): 7.8
- quantitative response among responders ([2]; DR1− responders): 4.42
- response to the peptide [2]: 12.11%
- statistical significance of the peptide response [2]: significant (p<0.05)

Substance: TGGFGSYVAFLPEKQ (TGGFGSYVAFIPEKQ; listed as Enterobacter cloacae) [Peptide #107]
- quantitative response among responders ([2]; DR1+ responders): 5.4
- quantitative response among responders ([2]; DR1− responders): 4.2
- response to the peptide [2]: 12.11%
- statistical significance of the peptide response [2]: significant (p<0.05)

Substance: hTpo: human thrombopoietin
- structure value, in words [2]: comparatively high
- Average Background ([2]; Table 2): 2.56
- Number of epitope regions ([2]; Table 2): 1
- Response per peptide ([2]; Table 2): 2.54
- Structure Value ([2]; Table 2): 0.65
- Background % ([2]; Table 3): 2.53%
- Response/Peptide ([2]; Table 3): 2.24
- Structure Value [2, 3]: 0.65
- Background +/− sd ([2]; Table 5, background response value): 2.54 +/− 2.23
- Responses/peptide found ([2]; Table 5, determined experimentally): 2.51
- Average percent response to epitope peptide [2]: 9.18%

Source: patent US20080220450A1, “Population Based Prediction Methods for Immune Response Determinations and Methods for Verifying Immunological Response Data” (Danisco US, Inc., Genencor Division, priority 2004, published 2008)
